Experimental data as given in patent US6967196B1, “Sulfonamide compounds and uses thereof” (Bristol-Myers Squibb Company, priority 1999, dated 2005).
Structures can show the parent of a compound that is named as a salt. Where two headings read alike, the source gives them in different places. Values belong to the compound of their own block, whether it stands above or below them.

System: amyloid β production in transfected H4 (human neuroglioma) cells stably expressing APP constructs
Assay: In vitro cell-based assay of inhibitors of amyloid β production (ELISA)
Conditions: amyloid β in medium by ELISA, read-out: ACTIVITY (IC50, inhibition of amyloid β production)
Procedure, shortened: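 Aβ secreted into the medium was determined by a two-antibody ELISA specific for the Aβ C-terminus, calibrated with known Aβ amounts. Before that, compounds (10-100 μM initially) were left on the cells for roughly 16 hours.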

[1] = transfected H4 cells stably expressing APP, approx. 16 h incubation
[2] = Homo sapiens, 16 h, transfected H4 cells stably expressing APP, approximately 16 hours incubation
[3] = transfected H4 cells stably expressing APP, approximately 16 hours incubation
[4] = Homo sapiens, 16 h, transfected H4 cells expressing APP, approximately 16 hours incubation
[5] = Homo sapiens, 16 h, transfected H4 cells stably expressing APP constructs, approximately 16 hours incubation
[6] = transfected H4 cells stably expressing APP constructs, approximately 16 hours incubation
[7] = transfected H4 cells stably expressing APP, approximately 16 hours incubation, Table B

IC50 [1]: 100 to 500 nM
Compound: 2-((1R)-1-{[(4-chlorophenyl)sulfonyl]-2,5-difluoroanilino}ethyl)benzyl cyclohexylcarbamate [Example 675]

IC50 [2]: > 500 nM
Compound: O=S(=O)(c1ccc(Cl)cc1)N(Cc1ccccc1OCCCN1CCCCC1)c1ccc(Br)cc1 [Example 988, N-(4-bromophenyl)-4-chloro-N-{2-[3-(1-piperidinyl)propoxy]benzyl}benzenesulfonamide hydrochloride]

Compound: O=S(=O)(c1ccc(Cl)cc1)N(Cc1ccccc1OCCCN1CCC(CO)CC1)c1ccccc1 [Example 922, 4-chloro-N-(2-{3-[4-(hydroxymethyl)-1-piperidinyl]propoxy}benzyl)-N-phenylbenzenesulfonamide hydrochloride]
IC50 [2]: > 500 nM

Compound: S-ethyl 4-[2-(1-{[(4-chlorophenyl)sulfonyl]-2,5-difluoroanilino}ethyl)phenoxy]ethyl(ethyl)thiocarbamate [Example 830]
IC50 [3]: 100 to 500 nM

IC50 [2]: 100 to 500 nM
Compound: C=Cc1ccccc1[C@@H](C)N(c1cc(F)ccc1F)S(=O)(=O)c1ccc(Cl)cc1 [Example 874, 4-chloro-N-(2,5-difluorophenyl)-N-[(1R)-1-(2-vinylphenyl)ethyl]benzenesulfonamide]

Compound: O=S(=O)(c1ccc(Cl)cc1)N(Cc1ccccc1OCCCCN1CCCCC1)c1ccccc1 [Example 977, 4-chloro-N-phenyl-N-{2-[4-(1-piperidinyl)butoxy]benzyl}benzenesulfonamide hydrochloride]
IC50 [2]: > 500 nM

IC50 [4]: > 500 nM
Compound: C[C@H](C(=O)N[C@H](C)C1CCCCC1)N(c1cc(Cl)ccc1F)S(=O)(=O)c1ccc(Cl)cc1 [Example 1351]

IC50 [5]: > 10000 nM
Compound: O=S(=O)(c1ccc(Cl)cc1)N(Cc1ccccc1OCc1ccccn1)c1ccccc1 [Example 1092, 4-chloro-N-phenyl-N-[2-(2-pyridinylmethoxy)benzyl]benzenesulfonamide hydrochloride]

Compound: COC(=O)[C@H](CC(C)C)NC(=O)CCC[C@@H](C)N(c1cc(Cl)ccc1F)S(=O)(=O)c1ccc(Cl)cc1 [Example 1265, (R)-4-Chloro-N-(5-chloro-2-fluorophenyl)-N-[6-[N-(S)-[1-(methoxycarbonyl)-3-methylbutyl]amino]-1-methyl-5-oxopentyl]benzenesulfonamide]
IC50 [6]: 50 to 100 nM

Compound: CC(C)[C@H](NC(=O)CCC[C@@H](C)N(c1cc(Cl)ccc1F)S(=O)(=O)c1ccc(Cl)cc1)C(=O)O [Example 536, (R)-4-Chloro-N-(5-chloro-2-fluorophenyl)-N-[5-[N-(S)-[1-(carboxy)-2-methylpropyl]amino]-1-methyl-5-oxopentyl]benzenesulfonamide]
IC50 [7]: 100 to 500 nM

IC50 [7]: 50 to 100 nM
Compound: CONC(=O)COc1ccccc1C(C)N(c1cc(F)ccc1F)S(=O)(=O)c1ccc(Cl)cc1 (centres unmarked) [Example 382, [2-(1-{[(4-Chlorophenyl)sulfonyl]-2,5-difluoroanilino}ethyl)phenoxy]-N-methoxyacetamide]

Compound: CN(CCCOc1ccccc1CN(c1cc(F)ccc1F)S(=O)(=O)c1ccc(Cl)cc1)C(=O)CCCCCN [Example 366, 6-Amino-N-{3-[2-({[(4-chlorophenyl)sulfonyl]-2,5-difluoroanilino}methyl)phenoxy]propyl]-N-methylhexanamide Hydrochloride]
IC50 [7]: 50 to 100 nM

IC50 [5]: ≤ 25 nM
Compound: CC(CC[C@@H](C)N(c1cc(Cl)ccc1Cl)S(=O)(=O)c1ccc(Cl)cc1)N1CCSC1C(=O)O (stereo partly drawn) [Example 1106, 4-chloro-N-(2,5-dichlorophenyl)-N-[4-(2-carboxy-3-thiazolidinyl)-1(R)-methylpentyl]benzenesulfonamide]

IC50 (Homo sapiens, 16 h, transfected H4 cells stably expressing APP, approx. 16 h incubation): 100 to 500 nM
Compound: CCOc1ccc(C(=O)N2CCCCC2CCOc2ccccc2CN(c2cc(F)ccc2F)S(=O)(=O)c2ccc(Cl)cc2)cc1 (centres unmarked) [Example 648, 4-chloro-N-(2,5-difluorophenyl)-N-{2-[2-[1-(4-ethoxybenzoyl)-2-piperidinyl]ethoxy}benzyl)benzenesulfonamide]

Compound: COC(=O)[C@H](CC(C)C)NC(=O)CC[C@@H](C)N(c1cc(Cl)ccc1F)S(=O)(=O)c1ccc(Cl)cc1 [Example 538]
IC50 [7]: 100 to 500 nM

IC50 [5]: 100 to 500 nM
Compound: C[C@H](CCCNC(=O)OCc1ccccc1)N(c1cc(Cl)ccc1Cl)S(=O)(=O)c1ccc(Cl)cc1 [Example 1155, 4-chloro-N-(2,5-dichlorophenyl)-N-[4-[[(benzoxy)carbonyl]amino]-1-methylbutyl]benzenesulfonamide]

IC50 [1]: 100 to 500 nM
Compound: N-{3-[2-(1-{[(4-chlorophenyl)sulfonyl]-2,5-difluoroanilino}methyl)phenoxy]propyl}-2-fluoro-N-methylbenzamide [Example 733]

Compound: CC1CS(=O)(=O)CCN1CCCCC[C@@H](C)N(c1cc(Cl)ccc1F)S(=O)(=O)c1ccc(Cl)cc1 (some centres unmarked) [Example 1275]
IC50 [6]: ≤ 25 nM

Compound: CCS(=O)(=O)CC[C@@H](C)N(c1cc(Cl)ccc1Cl)S(=O)(=O)c1ccc(Cl)cc1 [Example 1180, 4-chloro-N-[2,5-dichlorophenyl]-N-[1(R)-methyl-(3-ethylsulfonyl)propyl]benzenesulfonamide]
IC50 [6]: ≤ 25 nM

IC50 (transfected H4 cells stably expressing APP, approximately 16 hours incubation, hydrochloride): 100 to 500 nM
Compound: C[C@@H](c1ccccc1OCCCn1ccnc1)N(c1cc(F)ccc1F)S(=O)(=O)c1ccc(Cl)cc1 [Example 861, 4-chloro-N-(2,5-difluorophenyl)-N-((1S)-1-{2-[3-(1H-imidazol-1-yl)propoxy]phenyl}ethyl)benzenesulfonamide hydrochloride]

Compound: 4-chloro-N-(2,5-difluorophenyl)-N-[(1R)-1-(4-[(ethylsulfonyl)amino]butyl}-4-fluorophenyl)ethyl]benzenesulfonamide [Example 1075]
IC50 [3]: > 500 nM

IC50 [4]: 100 to 500 nM
Compound: C[C@H](C(=O)NC1CCCCC1)N(c1cc(Cl)ccc1F)S(=O)(=O)c1ccc(Cl)cc1 [Example 1308]

IC50 [1]: 100 to 500 nM
Compound: 2,4-dichloro-N-{3-[2-(1-{[(4-chlorophenyl)sulfonyl]-2,5-difluoroanilino}ethyl)phenoxy]propyl}-5-fluorobenzamide [Example 682]

IC50 [2]: > 500 nM
Compound: O=S(=O)(c1ccc(Cl)cc1)N(Cc1ccccc1OCCCCCCl)c1ccccc1 [Example 1026, 4-chloro-N-{2-[(5-chloropentyl)oxy]benzyl}-N-phenylbenzenesulfonamide]

Compound: CSC1CCCN(CC[C@@H](C)N(c2cc(Cl)ccc2Cl)S(=O)(=O)c2ccc(Cl)cc2)C1 (stereo partly drawn) [Example 1142, 4-chloro-N-(2,5-dichlorophenyl)-N-[3-[(3-methylthio)-1-piperidinyl]-1(R)-methylpropyl]benzenesulfonamide]
IC50 [6]: 100 to 500 nM

IC50 [2]: > 500 nM
Compound: CC(c1ccccc1O)N(c1cc(F)ccc1F)S(=O)(=O)c1ccc(Cl)cc1 (centres unmarked) [Example 1052, 4-chloro-N-(2,5-difluorophenyl)-N-[1-(2-hydroxyphenyl)ethyl]benzenesulfonamide]

IC50 [5]: 25 to 50 nM
Compound: CC(CCCN1CCOCC1)N(c1cc(Cl)ccc1F)S(=O)(=O)c1ccc(Cl)cc1 (centres unmarked) [Example 1114, 4-chloro-N-(5-chloro-2-fluorophenyl)-N-[4-(4-morpholinyl)-1-methylbutyl]benzenesulfonamide]

IC50 [1]: 100 to 500 nM
Compound: 4-chloro-N-{3-[2-(1-{[(4-chlorophenyl)sulfonyl]-2,5-difluoroanilino}ethyl)phenoxy]propyl}-N-methyl-2-nitrobenzamide [Example 636]

IC50 [5]: 25 to 50 nM
Compound: COC(=O)C1SCCN1CCCC[C@@H](C)N(c1cc(Cl)ccc1Cl)S(=O)(=O)c1ccc(Cl)cc1 (stereo partly drawn) [Example 1117, 4-chloro-N-(2,5-dichlorophenyl)-N-[5-(2-methoxycarbonyl-3-thiazolidinyl)-1(R)-methylpentyl]benzenesulfonamide]

Compound: O=S(=O)(c1ccc(Cl)cc1)N(Cc1ccccc1OCCC[N+]1([O-])CCCC1)c1cc(F)ccc1F [Example 507]
IC50 [7]: 100 to 500 nM

Compound: O=S(=O)(c1ccccc1)N(Cc1ccccc1OCCCN1CCC(O)C1)c1ccccc1 (centres unmarked) [Example 809, N-{2-[3-(3-hydroxy-1-pyrrolidinyl)propoxy]benzyl}-N-phenylbenzenesulfonamide hydrochloride]
IC50 [2]: 100 to 500 nM

Compound: CC(C)[C@H](NC(=O)CCCC[C@@H](C)N(c1cc(Cl)ccc1F)S(=O)(=O)c1ccc(Cl)cc1)C(=O)O [Example 1262, (R)-4-Chloro-N-(5-chloro-2-fluorophenyl)-N-[6-[N-(S)-[1-(carboxy)-2-methylpropyl]amino]-1-methyl-6-oxohexyl]benzenesulfonamide]
IC50 [6]: ≤ 25 nM

IC50 [2]: > 10000 nM
Compound: CN(C)CCCOc1ccccc1CN(c1ccccc1)S(C)(=O)=O [Example 1082, N-{2-[3-(dimethylamino)propoxy]benzyl}-N-phenylmethanesulfonamide]

IC50 [3]: > 500 nM
Compound: 2-((1R)-1-{[(4-chlorophenyl)sulfonyl]-2,5-difluoroanilino}ethyl)benzyl diethylcarbamate [Example 894]

IC50 [2]: 100 to 500 nM
Compound: O=S(=O)(c1ccc(Cl)cc1)N(Cc1ccccc1OCCCN1CCC2(CC1)OCCO2)c1ccccc1 [Example 877, 4-chloro-N-{2-[3-(1,4-dioxa-8-azaspiro[4.5]dec-8-yl)propoxy]benzyl}-N-phenylbenzenesulfonamide]
